The target in one test is MAPK14 (UniProt Q16539). As to the kind of experiment: Inhibition of MAPK14 Kinase Activity. Particulars: concentration not given here.
For test [1], the target named is CDK2 (UniProt P24941). As to the kind of experiment: Enzyme Assay.
The next test deals with ROCK2 (UniProt O75116). As to the kind of experiment: Inhibition of ROCK2 Kinase Activity. Conditions: concentration not given here.
Test [2] has as its target CDK2 (UniProt P24941). The test can be described thus: Enzyme Assay. The source holds these as a separate data set.

We go through five compounds from the Kinase Knowledgebase extract (Sharma et al. 2016).

Each structure is given as a SMILES string.

Chain of ROCK2 (O75116 whole entry, looked up): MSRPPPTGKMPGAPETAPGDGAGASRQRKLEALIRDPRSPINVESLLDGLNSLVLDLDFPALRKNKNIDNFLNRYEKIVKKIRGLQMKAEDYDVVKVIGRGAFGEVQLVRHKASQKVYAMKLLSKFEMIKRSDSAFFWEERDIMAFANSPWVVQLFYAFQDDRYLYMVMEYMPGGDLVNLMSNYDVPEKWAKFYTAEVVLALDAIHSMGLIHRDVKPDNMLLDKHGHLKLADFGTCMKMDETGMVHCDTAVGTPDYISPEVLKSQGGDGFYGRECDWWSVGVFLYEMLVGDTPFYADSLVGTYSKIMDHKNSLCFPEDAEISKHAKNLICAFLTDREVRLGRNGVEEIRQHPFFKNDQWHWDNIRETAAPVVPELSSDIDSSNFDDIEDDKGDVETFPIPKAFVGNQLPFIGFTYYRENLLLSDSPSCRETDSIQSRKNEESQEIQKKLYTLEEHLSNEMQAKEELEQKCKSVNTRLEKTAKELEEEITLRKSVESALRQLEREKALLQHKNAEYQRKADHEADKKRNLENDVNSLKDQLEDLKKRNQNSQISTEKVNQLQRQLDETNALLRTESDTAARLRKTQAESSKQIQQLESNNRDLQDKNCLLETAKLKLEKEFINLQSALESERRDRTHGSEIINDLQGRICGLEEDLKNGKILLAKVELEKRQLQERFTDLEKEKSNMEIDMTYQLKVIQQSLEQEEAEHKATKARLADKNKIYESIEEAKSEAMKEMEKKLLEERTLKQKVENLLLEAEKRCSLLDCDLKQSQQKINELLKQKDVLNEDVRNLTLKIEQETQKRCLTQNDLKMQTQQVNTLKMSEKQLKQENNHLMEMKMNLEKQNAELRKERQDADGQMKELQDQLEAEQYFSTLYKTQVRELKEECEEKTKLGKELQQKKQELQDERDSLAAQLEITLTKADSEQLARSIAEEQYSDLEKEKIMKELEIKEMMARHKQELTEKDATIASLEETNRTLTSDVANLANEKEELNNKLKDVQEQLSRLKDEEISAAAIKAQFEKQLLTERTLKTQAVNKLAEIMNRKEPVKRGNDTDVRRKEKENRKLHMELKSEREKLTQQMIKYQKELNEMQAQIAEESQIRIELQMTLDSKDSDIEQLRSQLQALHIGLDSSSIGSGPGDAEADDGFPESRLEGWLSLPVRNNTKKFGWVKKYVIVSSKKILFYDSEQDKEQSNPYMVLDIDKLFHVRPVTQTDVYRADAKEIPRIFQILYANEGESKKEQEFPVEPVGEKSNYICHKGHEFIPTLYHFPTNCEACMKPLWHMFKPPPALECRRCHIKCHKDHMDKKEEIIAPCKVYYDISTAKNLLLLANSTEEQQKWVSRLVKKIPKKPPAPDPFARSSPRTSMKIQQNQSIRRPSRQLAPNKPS
Chain of MAPK14 (Q16539 whole entry, looked up): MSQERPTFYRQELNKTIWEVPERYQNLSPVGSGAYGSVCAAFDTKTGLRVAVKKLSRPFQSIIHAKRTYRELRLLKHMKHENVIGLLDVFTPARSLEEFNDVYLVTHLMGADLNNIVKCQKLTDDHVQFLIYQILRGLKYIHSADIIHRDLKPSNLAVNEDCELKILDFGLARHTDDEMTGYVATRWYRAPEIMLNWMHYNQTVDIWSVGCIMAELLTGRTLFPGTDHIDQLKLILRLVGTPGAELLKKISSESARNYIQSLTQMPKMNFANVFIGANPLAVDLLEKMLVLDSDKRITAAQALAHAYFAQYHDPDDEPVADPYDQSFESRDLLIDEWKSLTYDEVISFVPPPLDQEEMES

What is called inhibition is the share of the control response that was lost under treatment. Low values mean a response near the control, high ones a response far below the control. By IC50 is commonly meant the concentration that gives 50% inhibition. As usually defined, the Ki is a measure of affinity in units of concentration, obtained from inhibition or displacement. A higher Ki goes with weaker binding. `Clc1ccc(Nc2nccc(-c3nccs3)n2)cn1`: the inhibition at MAPK14 worked out at 16%; against ROCK2, 13%. The figures for the IC50 against CDK2 [1] and against CDK2 [2] were 11 µM and above 50 µM, respectively. The inhibition constant Ki is 5.5 µM on CDK2 [1] and above 50 µM on CDK2 [2].

Consider `COc1ccc(Nc2nccc(-c3nccs3)n2)cn1`, for which the figures for the half-inhibitory concentration (IC50) against CDK2 [1] and against CDK2 [2] were above 50 µM and above 100 µM, respectively.

`COc1ccc(Nc2nccc(-c3nc(C)c(C)s3)n2)cn1`: the figures for the IC50 against CDK2 [1] and against CDK2 [2] were above 1 µM and above 10 µM, respectively.

For the compound `CCOC(=O)c1sc(-c2ccnc(Nc3ccc(Cl)cc3)n2)nc1O`, the IC50 on CDK2 [1] is above 1 µM; at CDK2 [2], above 10 µM.

On to `Cc1nc(-c2ccnc(Nc3ccc(Cl)nc3)n2)sc1C`, for which the IC50 against CDK2 [1] and at CDK2 [2] was above 10 µM each time.
